Reference: ChEMBL document CHEMBL2010689 (J Med Chem, 2012)

Legend:
[1] = Metabolic stability in human liver S9 fraction assessed as compound remaining after 2 hrs; assay type: ADME, subcellular; settings: read-out: Stability
[2] = Metabolic stability in mouse liver S9 fraction assessed as compound remaining after 2 hrs; assay type: ADME, subcellular; settings: read-out: Stability
[3] = Metabolic stability in dog liver S9 fraction assessed as compound remaining after 2 hrs; assay type: ADME, subcellular, Canis lupus familiaris; settings: read-out: Stability
[4] = Metabolic stability in monkey liver S9 fraction assessed as compound remaining after 2 hrs; assay type: ADME, subcellular, Macaca mulatta; settings: rhesus monkey, read-out: Stability
[5] = Metabolic stability in rat liver S9 fraction assessed as compound remaining after 2 hrs; assay type: ADME, subcellular; settings: read-out: Stability
[6] = Oral bioavailability in Sprague-Dawley rat at 5 mg/kg; assay type: ADME, organism-based; settings: in vivo
[7] = molecular target: Vascular endothelial growth factor receptor 2 (Homo sapiens, UniProt P35968)
Vascular endothelial growth factor receptor 2, sequence (P35968 whole entry): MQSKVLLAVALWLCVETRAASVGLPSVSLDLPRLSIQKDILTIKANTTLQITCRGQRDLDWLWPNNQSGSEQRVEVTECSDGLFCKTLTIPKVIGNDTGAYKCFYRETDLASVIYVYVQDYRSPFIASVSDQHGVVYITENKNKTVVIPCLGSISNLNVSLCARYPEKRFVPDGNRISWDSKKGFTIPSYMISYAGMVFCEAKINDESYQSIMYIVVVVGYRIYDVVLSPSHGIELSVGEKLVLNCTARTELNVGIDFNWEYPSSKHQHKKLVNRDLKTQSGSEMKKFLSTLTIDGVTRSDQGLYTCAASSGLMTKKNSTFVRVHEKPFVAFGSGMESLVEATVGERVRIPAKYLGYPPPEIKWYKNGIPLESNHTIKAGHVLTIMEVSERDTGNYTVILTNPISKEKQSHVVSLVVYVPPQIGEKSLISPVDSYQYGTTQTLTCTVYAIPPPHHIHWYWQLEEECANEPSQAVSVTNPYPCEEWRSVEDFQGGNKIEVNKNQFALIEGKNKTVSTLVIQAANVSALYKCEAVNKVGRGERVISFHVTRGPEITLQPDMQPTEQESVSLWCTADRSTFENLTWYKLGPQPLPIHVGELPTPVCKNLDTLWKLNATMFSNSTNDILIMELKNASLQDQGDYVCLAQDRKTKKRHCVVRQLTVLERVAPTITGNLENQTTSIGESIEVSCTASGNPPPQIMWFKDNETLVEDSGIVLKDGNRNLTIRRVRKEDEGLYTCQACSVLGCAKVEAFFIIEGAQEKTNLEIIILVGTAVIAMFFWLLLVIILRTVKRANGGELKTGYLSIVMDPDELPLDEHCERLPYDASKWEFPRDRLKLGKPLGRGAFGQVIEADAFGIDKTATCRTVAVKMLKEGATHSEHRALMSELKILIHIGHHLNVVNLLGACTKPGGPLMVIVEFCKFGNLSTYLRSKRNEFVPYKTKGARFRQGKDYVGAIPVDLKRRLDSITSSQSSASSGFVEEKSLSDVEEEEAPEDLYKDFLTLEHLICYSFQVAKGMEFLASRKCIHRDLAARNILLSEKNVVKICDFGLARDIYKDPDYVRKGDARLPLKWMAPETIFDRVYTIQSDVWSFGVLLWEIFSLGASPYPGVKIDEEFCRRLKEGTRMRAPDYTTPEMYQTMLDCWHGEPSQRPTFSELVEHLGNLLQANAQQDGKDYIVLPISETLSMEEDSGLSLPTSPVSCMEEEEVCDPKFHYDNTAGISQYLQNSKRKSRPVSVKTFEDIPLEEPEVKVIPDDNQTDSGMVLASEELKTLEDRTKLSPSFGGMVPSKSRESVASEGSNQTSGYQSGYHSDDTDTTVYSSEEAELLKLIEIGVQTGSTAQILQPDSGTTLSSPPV
Description: Inhibition of human recombinant VEGF-R2 expressed in baculovirus expression system using GST-PLCgamma as substrate after 1 hr by time-resolved fluorescence analysis

Angiopoietin-1 receptor = Angiopoietin-1 receptor (Homo sapiens, UniProt Q02763)
Angiopoietin-1 receptor, sequence (Q02763 whole entry): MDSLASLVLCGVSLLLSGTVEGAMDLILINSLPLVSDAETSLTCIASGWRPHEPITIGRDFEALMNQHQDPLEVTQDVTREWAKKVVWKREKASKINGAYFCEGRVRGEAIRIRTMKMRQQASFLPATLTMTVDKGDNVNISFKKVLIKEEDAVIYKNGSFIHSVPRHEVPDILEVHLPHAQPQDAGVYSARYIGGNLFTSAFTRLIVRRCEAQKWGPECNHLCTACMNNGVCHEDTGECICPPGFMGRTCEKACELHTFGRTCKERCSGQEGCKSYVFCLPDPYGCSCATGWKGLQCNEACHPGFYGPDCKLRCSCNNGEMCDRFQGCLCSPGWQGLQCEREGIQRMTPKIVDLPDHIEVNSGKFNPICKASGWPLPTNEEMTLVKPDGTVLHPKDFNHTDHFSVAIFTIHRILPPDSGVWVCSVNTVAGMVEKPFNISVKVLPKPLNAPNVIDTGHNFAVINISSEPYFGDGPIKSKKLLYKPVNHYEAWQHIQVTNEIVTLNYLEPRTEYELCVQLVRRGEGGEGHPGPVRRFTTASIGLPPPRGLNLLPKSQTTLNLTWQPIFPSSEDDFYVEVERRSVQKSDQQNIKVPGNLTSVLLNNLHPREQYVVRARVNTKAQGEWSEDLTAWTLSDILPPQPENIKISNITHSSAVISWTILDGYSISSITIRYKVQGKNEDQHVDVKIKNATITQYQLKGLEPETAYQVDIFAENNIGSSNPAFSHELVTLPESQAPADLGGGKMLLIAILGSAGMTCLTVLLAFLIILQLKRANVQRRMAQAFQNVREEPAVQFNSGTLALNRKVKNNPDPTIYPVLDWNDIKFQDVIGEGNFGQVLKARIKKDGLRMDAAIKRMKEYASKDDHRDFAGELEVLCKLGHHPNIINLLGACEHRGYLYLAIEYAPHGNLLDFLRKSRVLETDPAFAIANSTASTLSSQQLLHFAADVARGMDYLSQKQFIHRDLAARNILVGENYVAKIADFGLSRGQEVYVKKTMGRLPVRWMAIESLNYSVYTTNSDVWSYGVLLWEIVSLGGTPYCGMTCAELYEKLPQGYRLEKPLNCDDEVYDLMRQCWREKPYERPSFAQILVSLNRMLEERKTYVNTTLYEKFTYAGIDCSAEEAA
Description: Inhibition of human recombinant Tie2 expressed in baculovirus expression system using GST-PLCgamma as substrate after 1 hr by time-resolved fluorescence analysis

With `CCCn1c2ccc(Nc3ncccn3)cc2c2c3c(c4c(c21)CCc1nn(C)cc1-4)C(=O)NC3` the remaining at 2 h [1] was 54%, the remaining at 2 h [2] was 65% and the remaining at 2 h [3] was 65%. For the same compound, the remaining at 2 h [4] was 44%, the remaining at 2 h [5] was 65% and the bioavailability [6] was 22%.

`Cc1cc(C)nc(Nc2ccc3c(c2)c2c4c(c5c(c2n3CC(C)C)CCc2nn(C)cc2-5)C(=O)NC4)n1` gave an IC50 [7] greater than 3 µM and an IC50 (Angiopoietin-1 receptor) greater than 3 µM.

`COc1ccnc(Nc2ccc3c(c2)c2c4c(c5c(c2n3CC(C)C)CCc2nn(C)cc2-5)C(=O)NC4)n1` gave an IC50 (Angiopoietin-1 receptor) greater than 1 µM.

`CC(C)Cn1c2ccc(Nc3nccc(C(F)(F)F)n3)cc2c2c3c(c4c(c21)CCc1nn(C)cc1-4)C(=O)NC3` gave an IC50 (Angiopoietin-1 receptor) greater than 3 µM.

With `CC(C)n1c2ccc(Nc3ccncc3)cc2c2c3c(c4c(c21)CCc1nn(C)cc1-4)C(=O)NC3` the IC50 (Angiopoietin-1 receptor) was greater than 3 µM.

Work on `CC(C)OCc1ccc2c(c1)c1c3c(c4c(c1n2CCCO)Cc1ccccc1-4)C(=O)NC3` [CEP-5214] yielded an IC50 (Angiopoietin-1 receptor) greater than 10 µM.
